According to patent publication US20130102662A1, “USE OF INDUCIBLE NITRIC OXIDE SYNTHASE INHIBITORS AND NITRIC OXIDE […] INHIBIT POST-[…] IMMUNODEPRESSION” (University of Pittsburgh - of the Commonwealth System of …, priority 2011, published 2013):

Legend:
[1] = system: splenocytes; experiment: Splenocyte IFNγ release 48 hours after pseudofracture trauma, mice given 1400 W; format: in vivo; settings: C57BL/6 mice, 1400 W 5 mg/kg intraperitoneally
Description: Control mice received no experimental manipulation.
Mice were euthanized at 6 and 48 hours.

[2] = system: splenocytes; experiment: Splenocyte proliferation (3H-dT uptake) 48 hours after pseudofracture + laparotomy, NOX-100 by osmotic pump; format: in vivo, C57BL/6 mice; settings: PF+laparotomy, NOX-100 30 mg/kg/hr over 48 hours by intraperitoneal osmotic pump, Mean±SEM
Description: The mice were divided into six groups (n=5-10):
(§1) Mice then also received either NOX-100 at a dose of 30 mg/kg/hr or vehicle (Veh) over the 48 hour time period. A controlled, continuous drug delivery rate was established through the use of osmotic pumps inserted intraperitoneally by laparotomy. Laparotomy with pump insertion was performed at the time of trauma (0 hours). Please note that the laparotomy procedure itself is considered a significant trauma. Mice in the ‘Unmanipulated controls’ group received no experimental manipulation.
Mice were euthanized at a 48 hour time point. Measurements at this late time point included assessment of splenocyte responses. Splenocyte proliferation, a well established parameter of immune dysfunction was assessed. […] Splenocyte proliferation was assessed using tritiated thymidine (^3H-dT) uptake as counts per minute (c.p.m.).

[3] = system: splenocytes; experiment: Splenocyte interferon-gamma release (ELISA) 48 hours after pseudofracture + laparotomy, NOX-100 by osmotic pump; format: in vivo, C57BL/6 mice
Description: as §1
Additional measurements of splenocyte responses at the late 48 hr time point included assessment of splenocyte interferon-gamma release, an established parameter of immune dysfunction. […] Splenocyte culture supernatants were collected and assessed by ELISA.

Structure (SMILES): CC(=N)NCc1cccc(CN)c1 [1400 W, N-(3-(Aminomethyl)benzyl)acetamidine]
- Interferon-gamma release by splenocytes after antiCD3e stimulation following trauma ([1]; antiCD3e 1 μg/ml (FIG. 6)): no depression in cytokine release
- Concanavalin A stimulated splenocyte cytokine release (IFNγ) following trauma ([1]; concanavalin A 2.5 μg/ml (FIG. 4)): not significantly reduced

Structure (SMILES): CN(C[C@H](O)[C@@H](O)[C@H](O)[C@H](O)CO)C(=S)[S][Na] [NOX-100]
- Splenocyte proliferation, tritiated thymidine uptake after antiCD3e stimulation ([2]; antiCD3e 1 μg/ml, p<0.05 vs vehicle (FIG. 9B)): 45208.9±4890.5 c.p.m.
- Splenocyte proliferation, tritiated thymidine uptake after concanavalin A stimulation ([2]; concanavalin A 2.5 μg/ml, p=0.062 vs vehicle (FIG. 9A)): 33658.6±3787.9 c.p.m.
- Post-injury decrease in splenocyte release of interferon gamma, effect of administration ([3]; 48 hrs post injury, NOX-100 30 mg/kg/hr (FIGS. 10A-B)): reversed
- Splenocyte interferon-gamma release after antiCD3e stimulation ([3]; PF+laparotomy, NOX-100 30 mg/kg/hr over 48 hours by intraperitoneal osmotic pump, antiCD3e 1 μg/ml, Mean±SEM, p<0.05 vs vehicle (FIG. 10B)): 604.70 ± 86.96 pg/mL
